# Experimental data reported in US20070218491A1, “Oligomerization of amyloid proteins” (Oligomerix, Inc., priority 2006, published 2007).
# Where two headings read alike, the source gives them in different places.
# Key:
# [1] = target: T1, human islet amyloid polypeptide (Homo sapiens, UniProt P10997); conditions: cited from earlier work
# T1 sequence (P10997 34-70 limits assumed): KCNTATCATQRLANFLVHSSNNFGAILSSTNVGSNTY
# [2] = target: tau (Homo sapiens, UniProt P10636); assay: Screening compounds for inhibition of RNA-facilitated tau oligomer formation (modified ELISA); type: biochemical; conditions: incubations with RQ11+12 RNA polyanion; FIG. 14
# tau, sequence (P10636 1-412 isoform P10636-7): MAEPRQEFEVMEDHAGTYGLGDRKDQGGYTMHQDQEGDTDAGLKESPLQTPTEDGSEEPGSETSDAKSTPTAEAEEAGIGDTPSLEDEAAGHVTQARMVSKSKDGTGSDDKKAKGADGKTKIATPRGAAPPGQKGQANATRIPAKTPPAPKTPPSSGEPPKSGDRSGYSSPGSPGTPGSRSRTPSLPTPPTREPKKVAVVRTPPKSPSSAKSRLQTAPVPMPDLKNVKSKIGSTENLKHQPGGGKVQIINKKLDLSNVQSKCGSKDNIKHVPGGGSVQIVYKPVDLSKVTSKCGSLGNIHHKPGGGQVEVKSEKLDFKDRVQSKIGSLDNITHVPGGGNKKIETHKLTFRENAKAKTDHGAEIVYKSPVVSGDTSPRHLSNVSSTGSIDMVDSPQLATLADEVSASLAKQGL
# Procedure: RNA polyanion was used to facilitate oligomer formation of tau protein in vitro using the following, preferred, conditions: 20 pmoles of tau412 was reacted with 4 pmoles of a 197 base RNA, i.e., RQ11+12, in 50 mM Tris-HCl buffer at pH of 7.4 and incubated for 1 hour at 37° C. […] The 5:1 ratio was optimal for the RNA RQT157 as well (FIG. 15). […] The kinetics of oligomer formation was rapid. […] Physiological pH and temperature were used in the assay to simulate biological conditions.
# Formation of tau oligomers was analyzed using two different ELISA methods to provide verified data. The “modified” ELISA uses the same monoclonal antibody for capture and detection. Insoluble aggregates are removed in the ELISA procedure during washing steps. Only soluble aggregates of tau, not monomers, are detected with this ELISA because the detection and reporter antibody recognizes an epitope which is present only once within tau. At least one more tau molecule must be present in the complex for detection with the same antibody (method illustrated in FIG. 7). The modified ELISA used is similar to the modified ELISA previously used for identification of Aβ oligomers (Sian et al., Biochem. J. 349(Pt 1):299-308 2000)) and PrP oligomers (Vasan et al., Neurochem Res 31(5):629-37(2006)). […]
# [3] = target: tau412 (Homo sapiens, UniProt P10636); assay: Polyanion-facilitated tau412 oligomer formation detected by ELISA (modified, A11, DC11); type: biochemical; conditions: for facilitation of tau412 oligomer formation by heparin or DNA: modified ELISA, FIGS. 13 and 16
# tau412, sequence (P10636 1-412 isoform P10636-7): as above
# Procedure: The 5:1 ratio was optimal for the RNA RQT157 as well (FIG. 15). […] The kinetics of oligomer formation was rapid. […] Physiological pH and temperature were used in the assay to simulate biological conditions. Formation of tau oligomers was analyzed using two different ELISA methods to provide verified data. The “modified” ELISA uses the same monoclonal antibody for capture and detection. Insoluble aggregates are removed in the ELISA procedure during washing steps. Only soluble aggregates of tau, not monomers, are detected with this ELISA because the detection and reporter antibody recognizes an epitope which is present only once within tau. At least one more tau molecule must be present in the complex for detection with the same antibody (method illustrated in FIG. 7). The modified ELISA used is similar to the modified ELISA previously used for identification of Aβ oligomers (Sian et al., Biochem. J. 349(Pt 1):299-308 2000)) and PrP oligomers (Vasan et al., Neurochem Res 31(5):629-37(2006)). This assay used antibody MN1000, recognizing tau epitope amino acids 159-163, for capture and biotinylated MN1000 as reporter. […] The second ELISA method to detect oligomers is based on polyclonal antibody A11 which recognizes a common structure in soluble amyloid oligomers (FIGS. 8-10, and 12). (Kayed et al., Science 300: 486-491(2003)). […] This assay was used to optimize the molar ratio of tau:RNA for oligomer formation (FIGS. 8 and 15), follow oligomer formation over time (FIG. 10), show tau oligomer formation with a range of RNAs (FIG. 12), and detect soluble tau oligomers in CSF (FIG. 11). A third ELISA was used to show biological relevance of the tau oligomers formed in this assay to tau in AD and is based on monoclonal antibodies DC11 used for capture and biotinylated MN1000 for reporter. The antibody DC11 recognizes a conformational epitope in tau specific for AD (Vechterova et al., Neuroreport 1:87-91 (2003)). […] Oligomer formation was determined by modified ELISA (described above). […]
compound,measurement,setting,value
Cc1ccc(C(=O)Nc2ccc(S(=O)(=O)O)c3cc(S(=O)(=O)O)cc(S(=O)(=O)O)c23)cc1NC(=O)c1cccc(NC(=O)Nc2cccc(C(=O)Nc3cc(C(=O)Nc4ccc(S(=O)(=O)O)c5cc(S(=O)(=O)O)cc(S(=O)(=O)O)c45)ccc3C)c2)c1 [Suramin],effect on amyloid fibril formation,[1]; at high concentrations,stimulated the process
same,effect on amyloid fibril formation,[1]; at low concentrations,inhibited amyloid fibril formation
COc1cc(/C=C/C(=O)CC(=O)/C=C/c2ccc(O)c(OC)c2)ccc1O [curcumin],inhibition of RNA-facilitated tau oligomer formation,[2],inhibition
Heparin,facilitation of tau412 oligomer formation by heparin or DNA,[3],effective in facilitating tau oligomer formation
Polydeoxythymidine,facilitation of tau412 oligomer formation by heparin or DNA,[3],enhanced tau412 oligomer formation
polyA,facilitation of tau oligomer formation by RNA,"[3]; 5:1 tau:RNA ratio, detected with A11 Ab, FIG. 12",facilitated tau oligomer formation
